From publication PMC7645381, “Development and application of a high-throughput screening assay for identification of small molecule inhibitors of the P. falciparum reticulocyte binding-like homologue 5 protein” (International Journal for Parasitology: Drugs and Drug …, 2020)
pEC50, pIC50: −log10 of the molar value. Values joined by “and” are separate entries in the source; they are usually repeats but may differ in a detail not shown here. Equal values may be shown once. Read-outs that look alike come from different tables or passages of the source.

Experiments:
[1] = target: P. falciparum Rh5 (Rh5 – basigin interaction) (Plasmodium falciparum, UniProt Q8IFM5); test: biochemical; assay type: binding; conditions: 11 pt titration of the 45 hits; flag (POORFIT given as ~); two lines per compound; read-out: Basigin_IC50_Assay_Alpha IC50
Sequence of P. falciparum Rh5 (Rh5 – basigin interaction) (Q8IFM5 24-526): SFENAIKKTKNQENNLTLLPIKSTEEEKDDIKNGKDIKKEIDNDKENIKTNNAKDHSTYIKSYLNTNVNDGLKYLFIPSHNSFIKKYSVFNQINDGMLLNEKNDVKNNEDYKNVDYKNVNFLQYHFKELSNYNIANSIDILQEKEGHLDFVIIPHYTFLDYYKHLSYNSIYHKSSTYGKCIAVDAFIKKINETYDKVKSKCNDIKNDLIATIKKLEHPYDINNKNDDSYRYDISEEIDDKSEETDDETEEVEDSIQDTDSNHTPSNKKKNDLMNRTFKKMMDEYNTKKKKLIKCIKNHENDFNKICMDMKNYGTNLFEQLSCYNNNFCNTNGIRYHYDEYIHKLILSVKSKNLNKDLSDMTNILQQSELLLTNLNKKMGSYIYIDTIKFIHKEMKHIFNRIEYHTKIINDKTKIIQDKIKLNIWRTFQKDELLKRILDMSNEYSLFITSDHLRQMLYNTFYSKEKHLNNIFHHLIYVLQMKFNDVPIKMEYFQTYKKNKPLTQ

[2] = AlphaScreen TruHits counterscreen assay; conditions: 11 pt titration; flag (POORFIT given as ~); read-out: Basigin_IC50_Counter_TruHits IC50
Protocol: The counterscreen assay was conducted using AlphaScreen TruHits kit (PerkinElmer). Biotinylated acceptor beads and Streptavidin donor beads were both diluted in assay buffer (final concentration of 10 μg/mL). Using the Combi-multidrop, 10 μL of each bead solution (20 μg/mL prepared in assay buffer) was added to every well of the assay plate under subdued lighting. Compound addition and assay readout was performed as described above.

[3] = Basigin_IC50_Counter_Alpha counterscreen; conditions: 11 pt titration; flag (POORFIT given as ~)
Description: Supplement mmc3.xlsx, sheet "Report" | column: Basigin_IC50_Counter_Alpha IC50

HepG2 cells [4] = test: HepG2 growth inhibition assay; assay type: cell-based; conditions: Homo sapiens, 10-point dilution series, 48 h, Cell Titre-Glo
Protocol: HepG2 cells were cultured in Dulbeccos modified eagle's medium (DMEM) supplemented with 10% fetal calf serum (FCS), in a humidified incubator at 37 °C and 5% CO2. Ten-point compound titration assays were performed by treating cells (1 × 10^3) for 48 h in 384 well tissue culture treated plates (Greiner). Cytotoxicity was determined using Cell Titer Glo (Promega) and calculated as a percentage using DMSO as a positive growth control and 10 μM Bortezomib as a negative growth control. EC50 values were calculated using a 4-parameter log dose, non-linear regression analysis, with sigmoidal dose response (variable slope) curve fit using Graph Pad Prism (version 6.05). 0 and 100 constraint parameters were used for curve fitting. […]

HepG2 cells [5] = test system: HepG2 cells; set-up: method as in Pingaew et al., 2014; conditions: incubation time of 48 h, MTT assay ref Pingaew et al., 2014; read-out: HepG2 EC50 literature value; cited from earlier work

For `CCCN1CCc2cc(O)cc3c2[C@H]1Cc1ccc(O)c(O)c1-3` [WEHI-1215052], the pIC50 [1] was 5.13 and 5.07, the pIC50 [2] was < 4.60 and the pIC50 [3] was < 4.60.

With `O=C(Nc1cccc2c(=O)cc(-c3nnn[nH]3)oc12)c1ccc(OCCCCc2ccccc2)cc1` [WEHI-1216506] the pIC50 [1] was 5.28 and ~5.25, the pIC50 [2] was 4.61 and < 4.60 and the pIC50 [3] was 4.98 and 4.90.

With `CN1CCc2cccc3c2[C@H]1Cc1ccc(O)c(O)c1-3` [WEHI-1216442] the pIC50 [1] was ~5.39 and 5.38, the pIC50 [2] was < 4.60 and the pIC50 [3] was < 4.60.

For `CCCN1CCc2cccc3c2[C@H]1Cc1ccc(O)c(O)c1-3` [WEHI-1215034], the pIC50 [1] was 5.81 and 5.65, the pIC50 [2] was < 4.60 and the pIC50 [3] was 4.70 and 4.64.

In the case of `CC(=O)N1CCN(c2ccc(OC[C@@H]3CO[C@@](Cn4ccnc4)(c4ccc(Cl)cc4Cl)O3)cc2)CC1` [WEHI-1215227], the pIC50 [1] was 4.81 and 4.86, the pIC50 [2] was 4.63 and 4.66 and the pIC50 [3] was 4.87 and 4.92.

In the case of `COc1cc([C@@H]2c3cc4c(cc3[C@@H](O[C@@H]3O[C@@H]5CO[C@@H](C)O[C@H]5[C@H](O)[C@H]3O)[C@H]3COC(=O)[C@H]23)OCO4)cc(OC)c1O` [Etoposide, reference compound], the pEC50 (HepG2 cells [4]) is given as 4.80 and the pEC50 (HepG2 cells [5]) is given as 4.52.
